We go through 23 molecules from ChEMBL document CHEMBL1130668, “Synthesis and evaluation of paclitaxel C7 derivatives: solution phase synthesis of combinatorial libraries” (1998).

The subject of assay [1] is MCF7. The assay can be described thus: Effect on microtubule assembly in MCF-7 cells, compared to paclitaxel (0.3 uM), given as ratio of respective ED50. The assay is classed as functional, Homo sapiens.
The nature of assay [2]: Cytotoxicity activity was measured against resistant human breast cancer cell line MCF-7 with respect to ED50 of paclitaxel (2200-3700 nM). The assay is classed as functional, MCF7.
The subject of assay [3] is MCF7. The assay can be described thus: Cytotoxicity activity was measured against human breast cancer cell line MCF-7; Did not inhibit proliferation at maximum concentration tested. The class given is functional. As to conditions: read-out: ED50 (the source's name).
Assay [4] in a line: Cytotoxicity activity was measured against human breast cancer cell line MCF-7 with respect to ED50 of paclitaxel (2 nM). The class given is functional, MCF7.
Assay [5] deals with MCF7. The assay can be described thus: Cytotoxicity activity was measured against resistant human breast cancer cell line MCF-7; Did not inhibit proliferation at maximum concentration tested. The assay is classed as functional. The following applies: read-out: ED50 (the source's name).

SMILES strings stand for the structures.

Regarding `COc1ccc(C(=O)O[C@H]2C[C@H]3OC[C@@]3(OC(C)=O)[C@H]3[C@H](OC(=O)c4ccccc4)[C@]4(O)C[C@H](OC(=O)[C@H](O)[C@@H](NC(=O)c5ccccc5)c5ccccc5)C(C)=C([C@@H](OC(C)=O)C(=O)[C@]23C)C4(C)C)cc1`, the Ratio was determined as 22 in the assay with MCF7 [1] and 2.2 in assay [2]. The EC50 with MCF7 [3] is more than 80 nM.

With `CC(=O)O[C@H]1C(=O)[C@]2(C)[C@@H](OC(=O)CC#N)C[C@H]3OC[C@@]3(OC(C)=O)[C@H]2[C@H](OC(=O)c2ccccc2)[C@]2(O)C[C@H](OC(=O)[C@H](O)[C@@H](NC(=O)c3ccccc3)c3ccccc3)C(C)=C1C2(C)C` [PACLITAXEL C7 CYANOACETIC ACID ESTER], the Ratio in the assay on MCF7 [1] is given as 1.3; in assay [4] it was 8. Moreover, the EC50 in the assay with MCF7 [3] is more than 5000 nM.

For the molecule `CC(=O)O[C@H]1C(=O)[C@]2(C)[C@@H](OC(=O)c3ccc(C)cc3)C[C@H]3OC[C@@]3(OC(C)=O)[C@H]2[C@H](OC(=O)c2ccccc2)[C@]2(O)C[C@H](OC(=O)[C@H](O)[C@@H](NC(=O)c3ccccc3)c3ccccc3)C(C)=C1C2(C)C`, the Ratio is 25 in the assay on MCF7 [1], 0.9 in assay [2] and 31 in assay [4].

Consider `CC(=O)O[C@H]1C(=O)[C@]2(C)[C@@H](OC(=O)c3ccc([N+](=O)[O-])o3)C[C@H]3OC[C@@]3(OC(C)=O)[C@H]2[C@H](OC(=O)c2ccccc2)[C@]2(O)C[C@H](OC(=O)[C@H](O)[C@@H](NC(=O)c3ccccc3)c3ccccc3)C(C)=C1C2(C)C`, for which the Ratio is given as 8.7 in the assay on MCF7 [1] and 12 in assay [4]. For the same molecule, in the assay on MCF7 [5], the EC50 is more than 5000 nM.

With `CC(=O)O[C@H]1C(=O)[C@]2(C)[C@@H](OC(=O)CCCNC(=O)OC(C)(C)C)C[C@H]3OC[C@@]3(OC(C)=O)[C@H]2[C@H](OC(=O)c2ccccc2)[C@]2(O)C[C@H](OC(=O)[C@H](O)[C@@H](NC(=O)c3ccccc3)c3ccccc3)C(C)=C1C2(C)C`, the Ratio in the assay with MCF7 [1] is 0.7. In addition, the EC50 in the assay on MCF7 [5] was more than 5000 nM; with MCF7 [3] it was more than 80 nM.

On to `CC(=O)O[C@H]1C(=O)[C@]2(C)[C@@H](OC(=O)c3ccco3)C[C@H]3OC[C@@]3(OC(C)=O)[C@H]2[C@H](OC(=O)c2ccccc2)[C@]2(O)C[C@H](OC(=O)[C@H](O)[C@@H](NC(=O)c3ccccc3)c3ccccc3)C(C)=C1C2(C)C`, for which the Ratio is reported as 22 in the assay with MCF7 [1], 1 in assay [2] and 27 in assay [4].

Consider `CSCC(=O)O[C@H]1C[C@H]2OC[C@@]2(OC(C)=O)[C@H]2[C@H](OC(=O)c3ccccc3)[C@]3(O)C[C@H](OC(=O)[C@H](O)[C@@H](NC(=O)c4ccccc4)c4ccccc4)C(C)=C([C@@H](OC(C)=O)C(=O)[C@]12C)C3(C)C` [PACLITAXEL C7 METHYLTHIOACETIC ACID ESTER], for which the Ratio in the assay with MCF7 [1] is recorded as 0.7; in assay [2], 0.5; in assay [4], 10.

Consider `CC(=O)OCC(=O)O[C@H]1C[C@H]2OC[C@@]2(OC(C)=O)[C@H]2[C@H](OC(=O)c3ccccc3)[C@]3(O)C[C@H](OC(=O)[C@H](O)[C@@H](NC(=O)c4ccccc4)c4ccccc4)C(C)=C([C@@H](OC(C)=O)C(=O)[C@]12C)C3(C)C` [PACLITAXEL C7 ACETOXYACETIC ACID ESTER], for which the Ratio in the assay on MCF7 [1] is listed as 1.7; in assay [2] it was 1.8; in assay [4], 17.

Consider `CC(=O)O[C@H]1C(=O)[C@]2(C)[C@@H](OC(=O)C3CC3)C[C@H]3OC[C@@]3(OC(C)=O)[C@H]2[C@H](OC(=O)c2ccccc2)[C@]2(O)C[C@H](OC(=O)[C@H](O)[C@@H](NC(=O)c3ccccc3)c3ccccc3)C(C)=C1C2(C)C` [PACLITAXEL C7 CYCLOPROPANECARBOXYLIC ACID ESTER], for which the Ratio in the assay on MCF7 [1] is given as 22; in assay [4], 35. For the same molecule, the EC50 in the assay on MCF7 [5] was more than 5000 nM.

In the case of `CC(=O)O[C@H]1C(=O)[C@]2(C)[C@@H](OC(=O)c3ccc(Cl)cc3)C[C@H]3OC[C@@]3(OC(C)=O)[C@H]2[C@H](OC(=O)c2ccccc2)[C@]2(O)C[C@H](OC(=O)[C@H](O)[C@@H](NC(=O)c3ccccc3)c3ccccc3)C(C)=C1C2(C)C`, the Ratio with MCF7 [1] was found to be 13; in assay [2] it was 1.6. For the same molecule, the EC50 with MCF7 [3] is more than 80 nM.

In the case of `COCC(=O)O[C@H]1C[C@H]2OC[C@@]2(OC(C)=O)[C@H]2[C@H](OC(=O)c3ccccc3)[C@]3(O)C[C@H](OC(=O)[C@H](O)[C@@H](NC(=O)c4ccccc4)c4ccccc4)C(C)=C([C@@H](OC(C)=O)C(=O)[C@]12C)C3(C)C` [PACLITAXEL C7 METHOXYACETIC ACID ESTER], the results for the Ratio (in the assay with MCF7 [1]; in assay [2]; in assay [4]) were 1, 1.3 and 14, respectively.

In the case of `CC(=O)O[C@H]1C(=O)[C@]2(C)[C@@H](OC(=O)c3ccc(Cl)c(Cl)c3)C[C@H]3OC[C@@]3(OC(C)=O)[C@H]2[C@H](OC(=O)c2ccccc2)[C@]2(O)C[C@H](OC(=O)[C@H](O)[C@@H](NC(=O)c3ccccc3)c3ccccc3)C(C)=C1C2(C)C`, the Ratio in the assay with MCF7 [1] is given as 24. The figures for the EC50 in the assay on MCF7 [5] and with MCF7 [3] were more than 5000 nM and more than 80 nM, respectively.

Consider `CC(=O)O[C@H]1C(=O)[C@]2(C)[C@@H](OC(=O)C3CCCC3)C[C@H]3OC[C@@]3(OC(C)=O)[C@H]2[C@H](OC(=O)c2ccccc2)[C@]2(O)C[C@H](OC(=O)[C@H](O)[C@@H](NC(=O)c3ccccc3)c3ccccc3)C(C)=C1C2(C)C` [PACLITAXEL C7 CYCLOPENTANECARBOXYLIC ACID ESTER], for which the Ratio in the assay with MCF7 [1] is 1; in assay [2], 1.3; in assay [4], 37.

Turning to `CC(=O)O[C@H]1C(=O)[C@]2(C)[C@@H](OC(=O)C(C)(C)C)C[C@H]3OC[C@@]3(OC(C)=O)[C@H]2[C@H](OC(=O)c2ccccc2)[C@]2(O)C[C@H](OC(=O)[C@H](O)[C@@H](NC(=O)c3ccccc3)c3ccccc3)C(C)=C1C2(C)C` [PACLITAXEL C7 TRIMETHYLACETIC ACID ESTER], the Ratio is listed as 8.3 with MCF7 [1], 1.5 in assay [2] and 3 in assay [4].

`CC(=O)O[C@H]1C(=O)[C@]2(C)[C@@H](OC(=O)c3ccccc3)C[C@H]3OC[C@@]3(OC(C)=O)[C@H]2[C@H](OC(=O)c2ccccc2)[C@]2(O)C[C@H](OC(=O)[C@H](O)[C@@H](NC(=O)c3ccccc3)c3ccccc3)C(C)=C1C2(C)C` [PACLITAXEL C7 BENZOIC ACID ESTER]: the Ratio with MCF7 [1] was 8.3; in assay [2], 1.1; in assay [4], 14.

On to `CC(=O)O[C@H]1C(=O)[C@]2(C)[C@@H](OC(=O)c3cccn3C)C[C@H]3OC[C@@]3(OC(C)=O)[C@H]2[C@H](OC(=O)c2ccccc2)[C@]2(O)C[C@H](OC(=O)[C@H](O)[C@@H](NC(=O)c3ccccc3)c3ccccc3)C(C)=C1C2(C)C`, for which the Ratio in the assay on MCF7 [1] was 8.3; in assay [2], 1.2. Also, the EC50 in the assay with MCF7 [3] was more than 80 nM.

Regarding `CC(=O)O[C@H]1C(=O)[C@]2(C)[C@@H](OC(=O)c3ccc4ccccc4c3)C[C@H]3OC[C@@]3(OC(C)=O)[C@H]2[C@H](OC(=O)c2ccccc2)[C@]2(O)C[C@H](OC(=O)[C@H](O)[C@@H](NC(=O)c3ccccc3)c3ccccc3)C(C)=C1C2(C)C`, the Ratio in the assay with MCF7 [1] is 60. Moreover, the EC50 in the assay on MCF7 [5] is more than 5000 nM; with MCF7 [3], more than 80 nM.

As to `CC(=O)O[C@H]1C(=O)[C@]2(C)[C@@H](OC(C)=O)C[C@H]3OC[C@@]3(OC(C)=O)[C@H]2[C@H](OC(=O)c2ccccc2)[C@]2(O)C[C@H](OC(=O)[C@H](O)[C@@H](NC(=O)c3ccccc3)c3ccccc3)C(C)=C1C2(C)C` [PACLITAXEL C7 ACETYLCARBOXYLIC ACID ESTER], the Ratio with MCF7 [1] turned out to be 0.7; in assay [2], 0.7; in assay [4], 8.

Turning to `CC(=O)O[C@H]1C(=O)[C@]2(C)[C@@H](OC(=O)/C=C/Cl)C[C@H]3OC[C@@]3(OC(C)=O)[C@H]2[C@H](OC(=O)c2ccccc2)[C@]2(O)C[C@H](OC(=O)[C@H](O)[C@@H](NC(=O)c3ccccc3)c3ccccc3)C(C)=C1C2(C)C`, the Ratio in the assay with MCF7 [1] was determined as 5.3. The EC50 in the assay on MCF7 [5] is more than 5000 nM; with MCF7 [3], more than 80 nM.

`C/C=C/C(=O)O[C@H]1C[C@H]2OC[C@@]2(OC(C)=O)[C@H]2[C@H](OC(=O)c3ccccc3)[C@]3(O)C[C@H](OC(=O)[C@H](O)[C@@H](NC(=O)c4ccccc4)c4ccccc4)C(C)=C([C@@H](OC(C)=O)C(=O)[C@]12C)C3(C)C` [PACLITAXEL C7 CROTONIC ACID ESTER]: in the assay with MCF7 [1], the Ratio is recorded as 6.7. The figures for the EC50 in the assay on MCF7 [5] and with MCF7 [3] were more than 5000 nM and more than 80 nM, respectively.

Regarding `CC(=O)O[C@H]1C(=O)[C@]2(C)[C@@H](OC(=O)c3cccnc3C)C[C@H]3OC[C@@]3(OC(C)=O)[C@H]2[C@H](OC(=O)c2ccccc2)[C@]2(O)C[C@H](OC(=O)[C@H](O)[C@@H](NC(=O)c3ccccc3)c3ccccc3)C(C)=C1C2(C)C`, in the assay on MCF7 [1], the Ratio is 32. The EC50 with MCF7 [5] is more than 5000 nM; with MCF7 [3], more than 80 nM.

On to `CC(=O)O[C@H]1C(=O)[C@]2(C)[C@@H](OC(=O)c3ccsc3)C[C@H]3OC[C@@]3(OC(C)=O)[C@H]2[C@H](OC(=O)c2ccccc2)[C@]2(O)C[C@H](OC(=O)[C@H](O)[C@@H](NC(=O)c3ccccc3)c3ccccc3)C(C)=C1C2(C)C`, for which the results for the Ratio (in the assay with MCF7 [1]; in assay [2]) were 1.7 and 1.3, respectively. Further, in the assay with MCF7 [3], the EC50 is more than 80 nM.

In the case of `CCCCC(=O)O[C@H]1C[C@H]2OC[C@@]2(OC(C)=O)[C@H]2[C@H](OC(=O)c3ccccc3)[C@]3(O)C[C@H](OC(=O)[C@H](O)[C@@H](NC(=O)c4ccccc4)c4ccccc4)C(C)=C([C@@H](OC(C)=O)C(=O)[C@]12C)C3(C)C` [PACLITAXEL C7 VALERIC ACID ESTER], the Ratio is 0.7 with MCF7 [1], 0.4 in assay [2] and 10 in assay [4].
